# From paper PMC12051055, “Spectroscopy and crystallography define carotenoid oxygenases as a new subclass of mononuclear non-heme Fe^II enzymes” (The Journal of Biological Chemistry, 2025)
# Biological target: T1, CAO1 (Neurospora crassa carotenoid oxygenase 1) (Neurospora crassa, UniProt Q7S860)
# T1 construct: gene cao-1
# T1 sequence (Q7S860 1-526): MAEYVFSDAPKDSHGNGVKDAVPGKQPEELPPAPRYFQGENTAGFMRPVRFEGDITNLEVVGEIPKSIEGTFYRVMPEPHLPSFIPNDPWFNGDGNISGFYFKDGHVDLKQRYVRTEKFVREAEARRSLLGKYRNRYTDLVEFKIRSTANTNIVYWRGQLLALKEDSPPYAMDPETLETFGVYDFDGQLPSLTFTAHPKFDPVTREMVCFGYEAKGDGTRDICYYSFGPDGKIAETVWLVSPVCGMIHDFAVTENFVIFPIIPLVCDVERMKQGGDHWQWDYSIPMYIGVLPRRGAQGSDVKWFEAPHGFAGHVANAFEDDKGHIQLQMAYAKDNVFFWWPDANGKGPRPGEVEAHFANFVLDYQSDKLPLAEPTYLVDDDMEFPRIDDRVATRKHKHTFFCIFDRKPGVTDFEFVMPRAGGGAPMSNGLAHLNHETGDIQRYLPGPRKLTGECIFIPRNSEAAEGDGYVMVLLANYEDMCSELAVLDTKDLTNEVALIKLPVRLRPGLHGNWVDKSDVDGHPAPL
# Assay: UV-visible/CD titration of Fe(II)-CAO1 (anaerobic); also X-ray crystal structure, MCD, steady-state kinetics
# Assay type: binding
smiles,measurement,value
Oc1cc(O)cc(/C=C/c2ccc(O)c(O)c2)c1 [piceatannol],Kd,50 nM
